Source: paper PMC6984391, “Anion carriers as potential treatments for cystic fibrosis: transport in cystic fibrosis cells, and additivity to channel-targeting drugs” (Chemical Science, 2019)
pIC50: −log10 of the molar value. Entries after “also recorded” stand apart in the source; their conditions may differ.

Experiments:
YFP-FRT cells = test: Persistence of anion transport by fluorescence microscopy in YFP-FRT cells; format: cell-based, Fischer rat; settings: 10 μM, continuous perfusion
Protocol: the PBS bathing cells 10 minutes prior to PBS iodide addition, whereas UTP was added to cells with the PBS iodide solution. Fluorescence was measured for 14 seconds; 2 seconds before and 12 seconds after injection of 110 µl PBS iodide solution (137 mM Cl- replaced by I-) into each well (to obtain a final concentration of I- of 100 mM).
We expressed cell fluorescence values (F) relative to the fluorescence value immediately before I- injection (F0), excluding the initial decrease, which likely represents the quenching of extracellular YFP released from cells and signal reduction accompanying the increase in solution volume bathing cells. To quantify anion transport by test anionophores, we determined the initial slope of the fluorescence decay following I - addition by fitting first order exponential functions to the last 12 seconds of each fluorescence recording. […]
fluorescence microscopy as described previously.10 In brief, YFP-FRT cells were washed 3x with PBS before transfer to a perfusion chamber mounted on the stage of a Leica DM IRB microscope. […] Any anionophore not incorporated into YFP-FRT cell membranes was removed from the chamber by perfusion with PBS when fluorescence measurements commenced. […]
Fluorescence data from 5 – 9 cells per coverslip were analysed with 4 coverslips tested for each anionophore. […]

[1] = Affinity to Cl- by 1H NMR titration with Bu4N+Cl- in DMSO-d6/H2O (200:1); format: binding; settings: 1H NMR titration with Bu4N^+Cl^– in DMSO-d6/H2O (200 : 1) at 298 K; new compound
Protocol: The binding constant to chloride was assessed using 1H NMR titrations with n-Bu4N+Cl- in DMSO-d6/H2O (200:1). The hygroscopic guest n-Bu4N+Cl- and the host compounds were dried under high vacuum to remove residual solvents or water prior to solution preparation. The concentration of the host was around 1 mM in all titrations; the concentration of guest and the volumes of the aliquots of guest solution added to the host solution were varied o ver the experiments. The guest solutions contained the same concentrations of host as the starting host solution (i.e., n-Bu4N+Cl- was dissolved in a solution of ~1 mM host in DMSO-d6/H2O (200:1)), […]
NMR titration binding studies were performed using a Varian 500b NMR spectrometer at 298
K. The shift of both NH signals in DMSO were fitted to 1:1 binding model using a least -squares fitting procedure in a custom -made Excel spreadsheet .
Figure S6. Downfield region of the 1H NMR spectra from the titration of tetrabutylammonium chloride into 12 […]
(§1) (1 picture or pasted object on this page, not shown here)

YFP-CFBE cells = test: XTT cell viability assay in YFP-CFBE cells; format: cell-based; settings: for cytotoxicity in YFP-CFBE cells (XTT): 1–50 μM, 18 h at 37 °C; for pIC50: XTT, 18 h treatment, fit of first order regression (Fig. S23), read-out: half-maximal inhibitory concentration (IC50), cell viability
Protocol: For cytotoxicity studies, we used YFP-CFBE and YFP-FRT cells. YFP-CFBE cells were seeded in 96-well plates at a density of 5 x 10^4 cells/well and cultured at 37 °C in a humidified atmosphere of 5% CO2. Thirty hours after seeding the cells, different concentrations of anionophores were added to the culture media and the cells were incubated with anionophores for 18 h. To assay cell viability, we used the XTT Cell Proliferation Assay Kit (ATCC) according to the manufacturer’s instructions. The specific absorbance of test samples was measured using a Microplate Spectrophotometer (SpectraMax 190, Molecular Devices, Sunnyvale, CA, USA). In each experiment, multiple replicates (12 – 25 wells from 3 – 5 plates) were tested for each concentration of anionophore. […]
To evaluate the cytotoxicity of anionophores 11, 12, 15 and 19, we treated YFP-CFBE cells with the anionophores (1 – 50 µM) in DMSO for 18 h at 37 °C before assessing cell viability using sodium 2,3, -bis(2-methoxy-4-nitro-5-sulfophenyl)-5-[(phenylamino)-carbonyl]-2H-tetrazolium) (XTT). Figure S23 summarises the resu lts. Although compounds […]
as §1

[2] = set-up: method as in ref [20], [21], [23], [24], [29] (Reference column); settings: transporter preincorporated in LUVs (70% POPC + 30% cholesterol), 25 mM NaCl gradient, 225 mM NaNO3; ref [20], [21], [23], [24], [29]; cited from earlier work
[3] = set-up: method as in PMID 22461434, PMID 21846096, PMID 29786913; settings: mol% carrier to lipid for 50% Cl^– efflux in 270 s; 490 mM NaCl inside, 490 mM NaNO3 outside; ref [22], [16 and 25]; cited from earlier work

For `CCOC(=O)[C@]12CC[C@@H](NC(=S)Nc3ccc([N+](=O)[O-])cc3)C[C@@H]1C[C@@H](NC(=S)Nc1ccc([N+](=O)[O-])cc1)CC2` [Compound 12], the “duration of anion transport after anionophore delivery” value (YFP-FRT cells) was “up to 2 h” and the “K a to Cl^– in DMSO” value [1] was 1.7 × 10^3 M^–1.
In the case of `CCOC(=O)[C@]12CC[C@@H](NC(=S)Nc3cc(C(F)(F)F)cc(C(F)(F)F)c3)C[C@@H]1C[C@@H](NC(=S)Nc1cc(C(F)(F)F)cc(C(F)(F)F)c1)CC2` [Compound 15], the “cytotoxicity in YFP-CFBE cells (XTT)” value (YFP-CFBE cells) is given as “some cytotoxicity”, the pIC50 (YFP-CFBE cells) is given as < 4.30 and the “Specific initial rate [I]” value [2] is given as 2600 s^–1.
For `FC(F)(F)c1ccc(NC(=S)NCCN(CCNC(=S)Nc2ccc(C(F)(F)F)cc2)CCNC(=S)Nc2ccc(C(F)(F)F)cc2)cc1` [Compound 18], the “EC50, 270 s” value [3] is listed as 0.077 mol%.
For `FC(F)(F)c1cc(NC(=S)NCCN(CCNC(=S)Nc2cc(C(F)(F)F)cc(C(F)(F)F)c2)CCNC(=S)Nc2cc(C(F)(F)F)cc(C(F)(F)F)c2)cc(C(F)(F)F)c1` [Compound 19], the “EC50, 270 s” value [3] is given as 0.042 mol%, the “cytotoxicity in YFP-CFBE cells (XTT)” value (YFP-CFBE cells) is given as “some cytotoxicity; also recorded: strongest effect” and the pIC50 (YFP-CFBE cells) is given as 4.42.
